PMC11876671, “Investigating blood–brain barrier penetration and neurotoxicity of natural products for central nervous system drug development” (Scientific Reports, 2025)

settings: Table S2: compounds exhibiting moderate to high PAMPA-BBB permeability

Compound | PAMPA-BBB Pe
COc1ccc(C(=O)OC2C[C@H]3CC[C@H](C2)N3C)cc1OC (some centres unmarked) [NCGC00016471-04] | 16 10^-6 cm/sec
COC(=O)c1c(C)c2c(c(C)c1O)OC(=O)c1c(C)c(Cl)c(O)c(Cl)c1O2 [NCGC00095464-04] | 281 10^-6 cm/sec
COC(=O)c1c(OC)cc2c(c1C)Oc1c(Cl)c(O)c(Cl)c(C)c1C(=O)O2 [NCGC00095466-04] | 27 10^-6 cm/sec
COc1ccc(-c2coc3cc(O)ccc3c2=O)c(O)c1O [NCGC00095474-02] | 14 10^-6 cm/sec
CCOC(=O)c1c(C)cc(O)c(C=O)c1O [NCGC00095517-01] | 110 10^-6 cm/sec
CCOC(=O)c1c(C)cc(OC)cc1O [NCGC00095529-01] | 290 10^-6 cm/sec
COc1cc2c(cc1OC)C(=O)OC2 [NCGC00095581-04] | 12 10^-6 cm/sec
CC(=O)Oc1ccc(/C=C/c2cc(OC(C)=O)cc(OC(C)=O)c2)cc1 [NCGC00095675-03] | 200 10^-6 cm/sec
COc1cc(OC)c2c(c1)OC(c1ccccc1)CC2=O (centres unmarked) [NCGC00142553-05] | 176 10^-6 cm/sec
CCCCCc1c2c(cc(O)c1C(=O)O)OC(=O)c1cc(C(=O)CCCC)c(OC)cc1O2 [NCGC00160140-01] | 120 10^-6 cm/sec
COc1ccc([C@@H](C)C(=O)c2ccc(O)cc2O)cc1 [NCGC00160149-03] | 345 10^-6 cm/sec
COc1cc2c(cc1OC)-c1cc3cc(OC)c(OC)cc3c(=O)n1CC2 [NCGC00160189-01] | 232 10^-6 cm/sec
COc1cc(=O)n(C)c2c(OCC3OC(C)(C)OC3(C)C)cccc12 (centres unmarked) [NCGC00160200-01] | 106 10^-6 cm/sec
COc1cccc2c(=O)c3ccoc3n(C)c12 [NCGC00160208-01] | 54 10^-6 cm/sec
CN(C)CCc1cc2c(c3c1ccc1ccccc13)OCO2 [NCGC00160247-01] | 27 10^-6 cm/sec
C/C=C/c1ccc(OC(C)[C@@H](O)c2ccc(O)c(OC)c2)c(OC)c1 (some centres unmarked) [NCGC00160251-01] | 150 10^-6 cm/sec
COc1ccc(C(=O)OC2CC3CC[C@H](C2)N3C(C)=O)cc1OC (some centres unmarked) [NCGC00160255-01] | 22 10^-6 cm/sec
O=C1CCC[C@H]2[C@H]3CCCN4CCCC(=CN12)[C@@H]34 [NCGC00160276-01] | 33 10^-6 cm/sec
COc1cc2c(cc1OC)C(C(=O)c1ccc(OC)c(OC)c1O)=NCC2 [NCGC00160282-01] | 19 10^-6 cm/sec

Compound | PAMPA-BBB Pe
c1cnc2c(-c3nccc4c3[nH]c3ccccc34)cccc2c1 [NCGC00160283-01] | 352 10^-6 cm/sec
CC1=CC(=O)C2=C(C)C[C@@H]3OC(=O)[C@@H](C)[C@H]3C=C12 [NCGC00160288-01] | 74 10^-6 cm/sec
COC(=O)C1=CO[C@@H](C)[C@@H]2CN3CC[C@]4(C(=O)Nc5c4ccc(OC)c5OC)[C@H]3C[C@H]12 [NCGC00160292-01] | 46 10^-6 cm/sec
COc1cc(/C=C/C(=O)c2ccc(O)cc2O)ccc1O [NCGC00163564-01] | 188 10^-6 cm/sec
C/C=C(/C)C(=O)O[C@H]1CC(C)=CC(=O)[C@@]2(C)CC[C@@](O)(C(C)C)[C@H]12 [NCGC00163582-01] | 125 10^-6 cm/sec
COc1cc(C(=O)O[C@H]2CC(C)=CCC/C(C)=C/[C@@H](O)C2C(C)C)ccc1O (some centres unmarked) [NCGC00163636-01] | 88 10^-6 cm/sec
C[C@@H]1O[C@@H](O[C@H]2CC[C@@H](O[C@H]3[C@H](O)C[C@H](c4ccc5c(c4O)C(=O)C4=C(C5=O)[C@@]5(O)C(=O)C[C@](C)(O[C@H]6CC[C@H](O[C@H]7C=CC(=O)[C@H](C)O7)[C@H](C)O6)C[C@@]5(O)C=C4)O[C@@H]3C)O[C@H]2C)C=CC1=O [NCGC00163640-01] | 17 10^-6 cm/sec
CC(=O)OC(C)(C)[C@@H]1Cc2cc3ccc(=O)oc3cc2O1 [NCGC00178115-02] | 128 10^-6 cm/sec
COc1cc2c(cc1-c1coc3c4c(c(OC)cc3c1=O)OC(C)(C)C=C4)OCO2 [NCGC00178961-03] | 146 10^-6 cm/sec
COc1ccc2c(c1)O[C@@H]1COc3cc(OC)c(OC)cc3[C@@H]1C2=O [NCGC00178970-02] | 355 10^-6 cm/sec
COc1ccc([C@H]2COc3c(ccc(O)c3OC)C2)c(OC)c1O [NCGC00179004-02] | 127 10^-6 cm/sec
C=C(C)[C@H]1COc2cc3oc(=O)ccc3cc2O1 [NCGC00179107-03] | 152 10^-6 cm/sec
CC1(C)C(=O)C=C[C@@]2(C)C1C[C@@H](O)[C@]1(C)C2CC[C@@]2(C)[C@H](c3ccoc3)OC(=O)[C@H]3O[C@]321 (some centres unmarked) [NCGC00179150-03] | 108 10^-6 cm/sec
CO[C@H]1C=C2CCN(C)[C@H]2C2c3cc4c(cc3C(=O)O[C@@H]21)OCO4 (some centres unmarked) [NCGC00179416-02] | 19 10^-6 cm/sec
COc1c2ccoc2nc2c(OC)c(OC[C@@H](O)C(C)(C)O)ccc12 [NCGC00179458-02] | 12 10^-6 cm/sec
COc1cc2c(cc1O)[C@@H]1Cc3ccc(OC)c(O)c3CN1CC2 [NCGC00179539-03] | 78 10^-6 cm/sec
CC1(C)C=Cc2c(ccc(C(=O)/C=C/c3ccccc3)c2O)O1 [NCGC00187466-02] | 10 10^-6 cm/sec
COc1cc(O)c2c(c1)/C=C/C[C@H](O)[C@H](O)[C@H](O)CCC[C@H](C)OC2=O [NCGC00189513-01] | 245 10^-6 cm/sec

same assay, conditions: Table S3: compounds exhibiting low PAMPA-BBB permeability

Compound | PAMPA-BBB Pe(10^-6 cm/sec)
N[C@H](C(=O)O)c1ccc(O)c(C(=O)O)c1 [NCGC00024539-02] | <1 10^-6 cm/sec
COc1ccc(C(=O)CC(=O)O)c2c1C=CC(C)(C)O2 [NCGC00074767-03] | <1 10^-6 cm/sec
O=C(O)c1cc2ccccc2[nH]1 [NCGC00094957-03] | <1 10^-6 cm/sec
Cc1cc(O)c(C)c(O)c1C(=O)O [NCGC00095485-03] | <1 10^-6 cm/sec
O=C/C=C/c1ccc(O)cc1 [NCGC00095729-01] | 4.5 10^-6 cm/sec
COc1ccc(C2CC(=O)c3ccc(OC)cc3O2)cc1 (centres unmarked) [NCGC00095734-01] | 5.8 10^-6 cm/sec
Cc1cc(O)c(C=O)c(O)c1C(=O)O [NCGC00095742-01] | 2.7 10^-6 cm/sec
COc1cc(C/C=C\c2ccccc2)c(OC)cc1O [NCGC00160148-01] | 1.3 10^-6 cm/sec
O=C(NC[C@H](O)c1ccccc1)c1ccccc1 [NCGC00160191-01] | <1 10^-6 cm/sec
COc1c(O)cc2c(=O)oc3c(OC)c(O)cc4c(=O)oc1c2c34 [NCGC00160203-01] | <1 10^-6 cm/sec
COc1cc2oc(=O)c3c4c(cc5ccc(c1CCN(C)C)c2c53)OCO4 [NCGC00160212-01] | <1 10^-6 cm/sec
COc1c2ccoc2nc2c(OC)c(O[C@@H]3O[C@H](C)[C@@H](O)[C@@H](O)[C@H]3O)ccc12 [NCGC00160235-01] | <1 10^-6 cm/sec
Cn1c2c(c(=O)c3ccccc31)C[C@@H](O)C(C)(C)O2 [NCGC00160238-01] | <1 10^-6 cm/sec
COc1ccc([C@@H]2[C@@H](O)[C@H](O)[C@@H](C)N2C)cc1OC [NCGC00160242-01] | 1.3 10^-6 cm/sec
O=C1N[C@@H](Cc2c[nH]c3ccccc23)C(=O)N[C@H]1Cc1c[nH]c2ccccc12 [NCGC00160254-01] | <1 10^-6 cm/sec
C/C=C(\C)C(=O)O[C@H]1CC(C)=C2C(=O)C=C(C)C2[C@@H]2OC(=O)[C@@](C)(OC(=O)C=C(C)C)C21 (some centres unmarked) [NCGC00160270-01] | 5.7 10^-6 cm/sec
Cc1cc(O)c2c(c1O)C(=O)C(O)=C(O)C2=O [NCGC00160271-01] | 4.8 10^-6 cm/sec

Compound | PAMPA-BBB Pe(10^-6 cm/sec)
CNCCCCc1cnc(C)c2[nH]c3ccccc3c12 [NCGC00160349-01] | <1 10^-6 cm/sec
COC(=O)C(O)C(O)(CCC(C)C)C(=O)OC1C(OC)=CC23CCCN2CCc2cc4c(cc2C13)OCO4 (centres unmarked) [NCGC00161614-01] | <1 10^-6 cm/sec
Cn1cnc2c(ncn2[C@@H]2O[C@H](CO)[C@@H](O)[C@H]2O)c1=N [NCGC00163305-01] | <1 10^-6 cm/sec
Nc1ncnc2c1ncn2[C@@H]1O[C@H](COP(=O)(O)OP(=O)(O)OC[C@H]2OC(O)[C@H](O)[C@@H]2O)[C@@H](O)[C@H]1O (some centres unmarked) [NCGC00163321-01] | <1 10^-6 cm/sec
COc1ccc2[nH]cc(CCO)c2c1 [NCGC00163352-01] | 9.4 10^-6 cm/sec
C[C@]12O[C@H](C[C@@]1(O)C(=O)O)n1c3ccccc3c3c4c(c5c6ccccc6n2c5c31)CNC4=O [NCGC00163504-01] | <1 10^-6 cm/sec
COc1cc2oc(=O)ccc2cc1O [NCGC00163577-02] | 2.2 10^-6 cm/sec
C[C@@H]1OC(O[C@H]2[C@H](Oc3cc(O)c4c(=O)c(O)c(-c5ccc(O)cc5)oc4c3)O[C@H](CO)[C@@H](O)[C@@H]2O)[C@H](O)[C@H](O)[C@H]1O (some centres unmarked) [NCGC00163581-01] | <1 10^-6 cm/sec
OC1c2ccccc2N=C2CCCN21 (centres unmarked) [NCGC00163606-01] | 5.3 10^-6 cm/sec
COc1cc(-c2oc3cc(O)cc(O)c3c(=O)c2O[C@@H]2O[C@H](CO)[C@@H](O)[C@H](O)[C@H]2O)cc(OC)c1O [NCGC00163630-01] | <1 10^-6 cm/sec
COC1=C(O)C(=O)c2c(cc3oc(C(C)=O)c(O)c3c2O)C1=O [NCGC00178066-02] | <1 10^-6 cm/sec
CC(=O)O[C@H]1C[C@@H](OC(C)=O)C(C)(C)C2C[C@@H](OC(C)=O)[C@]3(C)C(CC[C@@]4(C)[C@H](c5ccoc5)OC(=O)[C@H]5O[C@]543)[C@]21C (some centres unmarked) [NCGC00179019-03] | 2.7 10^-6 cm/sec
CC1(C)C(=O)C=C[C@@]2(C)C1CC(=O)[C@]1(C)C2CC[C@@]2(C)[C@H](c3ccoc3)OC(=O)[C@H]3O[C@]321 (some centres unmarked) [NCGC00179119-02] | <1 10^-6 cm/sec
COc1cc(C(=O)OC2C[C@H]3CC[C@@H](C2)N3C)ccc1O (some centres unmarked) [NCGC00179405-02] | 8.5 10^-6 cm/sec
O=C(CO)c1c[nH]c2ccccc12 [NCGC00182562-01] | 6.7 10^-6 cm/sec
Cc1c(O)c2c(c(C(=O)/C=C/c3ccccc3)c1O)OC(C)(C)C=C2 [NCGC00187465-01] | <1 10^-6 cm/sec
CC1=CC(=O)/C(=C(/C)O)C(=O)O1 [NCGC00254206-01] | 3.3 10^-6 cm/sec
